Experimental data: ChEMBL document CHEMBL4038276 (Bioorg Med Chem, 2017)
Activity calls are given as the source filed them. The rule behind the calls is not given here.

Key:
Mu-type opioid receptor [1] = biological target: T1, Mu-type opioid receptor (Rattus norvegicus, UniProt P33535)
[2] = biological target: Mu-type opioid receptor (Rattus norvegicus) (UniProt P33535); assay: Antagonist activity at rat mu opioid receptor expressed in rat C6 cell membranes assessed as inhibition of DAMGO-induced [35S]GTPgammaS binding measured after 1 hr by liquid scintillation counting method; type: functional
[3] = biological target: Delta-type opioid receptor (Rattus norvegicus) (UniProt P33533); assay: Displacement of [3H]DADLE from delta opioid receptor in rat brain at 100 nM after 60 mins by liquid scintillation counting method relative to control
[4] = biological target: Kappa-type opioid receptor (Rattus norvegicus) (UniProt P34975); assay: Displacement of [3H]U-69,593 from kappa opioid receptor in rat brain at 100 nM after 60 mins by liquid scintillation counting method relative to control
[5] = biological target: Mu-type opioid receptor (Rattus norvegicus) (UniProt P33535); details: at 100 nM
[6] = biological target: T2, Kappa-type opioid receptor (Homo sapiens, UniProt P41145); assay: Agonist activity at human kappa opioid receptor expressed in CHO cell membranes assessed as stimulation of [35S]GTPgammaS binding incubated for 1 hr by liquid scintillation counting method relative to U-69,593; type: functional
[7] = biological target: Mu-type opioid receptor (Rattus norvegicus) (UniProt P33535); assay: Agonist activity at rat mu opioid receptor expressed in rat C6 cell membranes assessed as stimulation of [35S]GTPgammaS binding incubated for 1 hr by liquid scintillation counting method relative to DAMGO; type: functional
Mu-type opioid receptor [8] = biological target: T1, Mu-type opioid receptor; assay: Agonist activity at rat mu opioid receptor expressed in rat C6 cell membranes assessed as stimulation of [35S]GTPgammaS binding incubated for 1 hr by liquid scintillation counting method; type: functional
[9] = biological target: T3, Delta-type opioid receptor (Rattus norvegicus, UniProt P33533); assay: Displacement of [3H]DADLE from delta opioid receptor in rat brain after 60 mins by liquid scintillation counting method
[10] = biological target: Delta-type opioid receptor (Rattus norvegicus) (UniProt P33533); assay: Agonist activity at rat delta opioid receptor expressed in rat C6 cell membranes assessed as stimulation of [35S]GTPgammaS binding incubated for 1 hr by liquid scintillation counting method relative to DPDPE; type: functional
[11] = biological target: T3, Delta-type opioid receptor; assay: Agonist activity at rat delta opioid receptor expressed in rat C6 cell membranes assessed as stimulation of [35S]GTPgammaS binding incubated for 1 hr by liquid scintillation counting method; type: functional
Rattus norvegicus = species on record: Rattus norvegicus; assay: Selectivity ratio of EC50 for rat delta opioid receptor to EC50 for rat mu opioid receptor
[12] = biological target: Kappa-type opioid receptor (Rattus norvegicus, UniProt P34975); assay: Displacement of [3H]U-69,593 from kappa opioid receptor in rat brain after 60 mins by liquid scintillation counting method
[13] = Selectivity ratio of EC50 for human kappa opioid receptor expressed in CHO cell membranes to EC50 for rat mu opioid receptor expressed in rat C6 cell membranes; type: cell-based
[14] = biological target: T2, Kappa-type opioid receptor; assay: Agonist activity at human kappa opioid receptor expressed in CHO cell membranes assessed as stimulation of [35S]GTPgammaS binding incubated for 1 hr by liquid scintillation counting method; type: functional
[15] = biological target: Mu-type opioid receptor (Rattus norvegicus) (UniProt P33535); assay: Antagonist activity at rat brain mu opioid receptor expressed in rat C6 cell membranes assessed as inhibition of DAMGO-induced [35S]GTPgammaS binding at 1 uM after 1 hr by liquid scintillation counting method; type: functional
[16] = biological target: T2, Kappa-type opioid receptor; assay: Antagonist activity at human kappa opioid receptor expressed in CHO cell membranes assessed as inhibition of U-69,593-induced [35S]GTPgammaS binding measured after 1 hr by liquid scintillation counting method; type: functional

T1 sequence (P33535 whole entry): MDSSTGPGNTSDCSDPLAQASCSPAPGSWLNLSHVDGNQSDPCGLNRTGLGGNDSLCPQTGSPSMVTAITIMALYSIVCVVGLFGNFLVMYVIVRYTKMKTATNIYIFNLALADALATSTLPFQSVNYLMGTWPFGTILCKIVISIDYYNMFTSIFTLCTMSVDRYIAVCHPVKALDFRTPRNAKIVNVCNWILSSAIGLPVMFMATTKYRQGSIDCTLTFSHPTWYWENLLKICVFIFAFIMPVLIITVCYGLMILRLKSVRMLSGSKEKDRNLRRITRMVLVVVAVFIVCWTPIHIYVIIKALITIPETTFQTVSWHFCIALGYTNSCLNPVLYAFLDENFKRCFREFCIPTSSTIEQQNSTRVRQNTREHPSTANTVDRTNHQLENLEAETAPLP
Chain of Mu-type opioid receptor (Rattus norvegicus) (P33535 whole entry): as above
T2 sequence (P41145 whole entry): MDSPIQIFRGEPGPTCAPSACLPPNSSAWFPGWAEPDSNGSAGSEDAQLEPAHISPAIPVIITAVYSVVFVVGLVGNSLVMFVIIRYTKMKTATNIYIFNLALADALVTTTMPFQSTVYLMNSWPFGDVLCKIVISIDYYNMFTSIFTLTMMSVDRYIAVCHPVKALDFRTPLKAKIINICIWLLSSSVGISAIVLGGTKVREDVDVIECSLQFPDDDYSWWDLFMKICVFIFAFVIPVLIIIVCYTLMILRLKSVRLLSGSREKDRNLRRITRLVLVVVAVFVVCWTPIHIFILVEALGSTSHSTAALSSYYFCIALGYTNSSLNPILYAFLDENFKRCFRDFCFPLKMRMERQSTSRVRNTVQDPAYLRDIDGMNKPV
Chain of Kappa-type opioid receptor (Rattus norvegicus) (P34975 whole entry): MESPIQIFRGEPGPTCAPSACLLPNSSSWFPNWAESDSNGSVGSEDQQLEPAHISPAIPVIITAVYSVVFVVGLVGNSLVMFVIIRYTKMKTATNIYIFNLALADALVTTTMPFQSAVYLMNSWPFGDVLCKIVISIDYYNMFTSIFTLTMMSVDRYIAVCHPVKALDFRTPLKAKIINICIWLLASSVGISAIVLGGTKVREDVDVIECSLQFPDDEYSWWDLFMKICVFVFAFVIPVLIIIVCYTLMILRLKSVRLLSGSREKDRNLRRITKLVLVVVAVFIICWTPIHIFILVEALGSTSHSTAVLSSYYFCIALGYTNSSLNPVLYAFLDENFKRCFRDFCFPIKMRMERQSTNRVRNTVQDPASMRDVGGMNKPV
T3 sequence (P33533 whole entry): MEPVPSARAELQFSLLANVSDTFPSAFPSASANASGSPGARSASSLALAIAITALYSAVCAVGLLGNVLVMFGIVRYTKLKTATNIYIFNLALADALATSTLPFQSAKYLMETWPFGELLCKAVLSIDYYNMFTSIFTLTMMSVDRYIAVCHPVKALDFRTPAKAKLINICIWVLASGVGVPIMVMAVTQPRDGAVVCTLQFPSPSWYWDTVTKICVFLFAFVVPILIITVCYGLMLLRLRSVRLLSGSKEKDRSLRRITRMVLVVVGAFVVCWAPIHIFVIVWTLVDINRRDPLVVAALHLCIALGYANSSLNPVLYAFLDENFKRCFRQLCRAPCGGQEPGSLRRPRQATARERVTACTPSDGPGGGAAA
Chain of Delta-type opioid receptor (Rattus norvegicus) (P33533 whole entry): as above
Chain of Kappa-type opioid receptor (Rattus norvegicus, UniProt P34975) (P34975 whole entry): as the sequence (P34975 whole entry) above

SMILES | Ki (Mu-type opioid receptor [1]) [nM] | inhibition [2] | inhibition [3] [%] | inhibition [4] [%] | inhibition [5] [%] | Activity [6] [%] | Activity [7] [%] | EC50 (Mu-type opioid receptor [8]) [nM] | Ki [9] [nM] | Activity [10] [%] | EC50 [11] [nM] | Ratio EC50 (Rattus norvegicus) | Ki [12] [nM] | Ratio EC50 [13] | EC50 [14] [nM] | Ke [15] [nM] | inhibition [16]
Oc1cccc([C@]23CCC[C@H]([C@@H]2O)N(C[C@H]2C[C@H]2c2ccccc2)CC3)c1 | 51.8 | Active | < 50 | < 50 | > 50 | – | – | – | – | – | – | – | – | – | – | – | –
CN1CC[C@]23c4c5ccc(O)c4O[C@H]2[C@@H](O)C=C[C@H]3[C@H]1C5 | – | – | – | – | > 50 | – | – | – | – | – | – | – | – | – | – | – | –
CC[C@]12CCN(CC3CC3)[C@H](C(=O)c3ccc(O)cc31)[C@H]2C | – | – | – | – | – | 93 | – | – | – | – | – | – | – | – | – | – | –
Oc1cccc([C@@]23CCC[C@@H]([C@@H]2O)N(CC/C=C/c2ccccc2)CC3)c1 | 25 | Active | < 50 | < 50 | > 50 | – | – | – | – | – | – | – | – | – | – | – | –
C=CCN1C[C@H](C)N([C@H](c2ccc(C(=O)N(CC)CC)cc2)c2cccc(OC)c2)C[C@H]1C | – | – | > 50 | – | – | – | – | – | – | – | – | – | – | – | – | – | –
Oc1cccc([C@]23CCC[C@H]([C@@H]2O)N(C[C@@H]2C[C@@H]2c2ccccc2)CC3)c1 | 11.6 | – | < 50 | < 50 | > 50 | – | 22 | 797 | – | – | – | – | – | – | – | – | –
Oc1cccc([C@]23CCC[C@H]([C@H]2O)N(CCc2ccccc2)CC3)c1 | 0.265 | – | > 50 | – | > 50 | – | 120 | 22 | 19.2 | 100 | 1080 | – | – | – | – | – | –
Oc1cccc([C@]23CCC[C@H]([C@@H]2O)N(C[C@@H]2C[C@H]2c2ccccc2)CC3)c1 | 44.5 | Active | < 50 | < 50 | > 50 | – | – | – | – | – | – | – | – | – | – | – | –
Oc1cccc(C23CCCC(C2O)N(C/C=C/c2ccccc2)CC3)c1 (single isomer, unassigned) | 0.741 | – | > 50 | < 50 | > 50 | – | 20 | 1.9 | 17.8 | 51 | 253 | 133 | – | – | – | – | –
C=CCN1CC[C@@]2(c3cccc(O)c3)CCC[C@@H]1[C@H]2O | 29.2 | – | < 50 | < 50 | > 50 | – | 67 | 2060 | – | – | – | – | – | – | – | – | –
Oc1cccc([C@]23CCC[C@H]([C@H]2O)N(CCc2ccc(C(F)(F)F)cc2)CC3)c1 | 1.99 | – | > 50 | > 50 | > 50 | 18 | 83 | 19 | 161 | 50 | 901 | 47 | 29.9 | 40 | 761 | – | –
O=[N+]([O-])c1ccc(CCN2CC[C@]3(c4cccc(O)c4)CCC[C@H]2[C@@H]3O)cc1 | 26.5 | Active | < 50 | < 50 | > 50 | – | – | – | – | – | – | – | – | – | – | 31.5 | –
O=[N+]([O-])c1ccc(CCN2CC[C@@]3(c4cccc(O)c4)CCC[C@@H]2[C@H]3O)cc1 | 0.073 | – | > 50 | > 50 | > 50 | – | 104 | 0.74 | 9.81 | 104 | 630 | 850 | 54.5 | – | – | – | Active
